The source of these data is US6168939A, “Endopeptidase produced by Lactobacillus helveticus” (priority 1995, dated 2001).

Holding throughout (type): biochemical
The target in assay [1] is T1, endopeptidase produced by Lactobacillus helveticus (Lactobacillus helveticus, UniProt Q6UP05).
T1 construct: N-terminus […]
T1 sequence (Q6UP05 1-643): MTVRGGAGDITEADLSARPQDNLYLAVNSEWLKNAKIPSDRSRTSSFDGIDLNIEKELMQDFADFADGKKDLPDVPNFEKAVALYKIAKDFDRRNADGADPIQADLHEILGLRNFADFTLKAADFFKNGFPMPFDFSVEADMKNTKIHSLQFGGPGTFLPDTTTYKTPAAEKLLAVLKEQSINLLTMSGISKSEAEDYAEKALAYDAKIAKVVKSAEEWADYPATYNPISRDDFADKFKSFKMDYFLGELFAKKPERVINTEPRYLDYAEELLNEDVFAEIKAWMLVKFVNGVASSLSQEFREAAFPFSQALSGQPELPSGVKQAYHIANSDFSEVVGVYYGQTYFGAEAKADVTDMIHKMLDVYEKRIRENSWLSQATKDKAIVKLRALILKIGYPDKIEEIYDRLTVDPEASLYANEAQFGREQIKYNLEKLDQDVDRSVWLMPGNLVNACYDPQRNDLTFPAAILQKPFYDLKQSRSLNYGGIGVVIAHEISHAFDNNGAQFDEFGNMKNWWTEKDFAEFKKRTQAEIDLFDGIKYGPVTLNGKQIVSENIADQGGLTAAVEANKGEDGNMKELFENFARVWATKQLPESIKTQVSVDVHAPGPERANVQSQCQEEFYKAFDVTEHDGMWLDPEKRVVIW
In words: Substrate specificity: hydrolysis of substrates by the endopeptidase. Particulars: 5.0 hrs. On the set-up: key: + represents that a substrate was hydrolyzed; - represents that a substrate was not hydrolyzed. As for the experimental part:
The substrate specificity of the endopeptidase of the present invention was determined. In 200 μl of 2 to 5 mM substrate in 50 mM HEPES buffer, pH 7.0, 10 μl of the endopeptidase solution of the present invention in 50 mM HEPES buffer, pH 7.0, at five μg/ml was added and incubated at 30° C. for 5.0 hrs. Then, the reaction mixture was applied to reversed phase chromatography and eluted using linear increase of concentration of acetonitrile in 0.1% trifluoroacetic acid from zero to 60%. The hydrolysis was determined from the decrease of the peak area of the substrate and/or the appearance of a new peak(s) at 214 nm on the chromatogram.

The target in assay [2] is T1, endopeptidase produced by Lactobacillus helveticus. In words: Influence of metal ions on endopeptidase activity. Particulars: method according to Test example 7. How it is done: (§1) The influences of enzyme inhibitors on the-activity of the endopeptidase of the present invention was determined. The purified endopeptidase (0.5 μg protein/ml) in 40 mM HEPES, pH7.0, was incubated for 30 min. at 4° C. with 0.001 to 2.0 mM enzyme inhibitors. After pre-incubating the enzyme mixture for 5 min. at 30° C., 1 mM Tyr-Gly-Gly-Phe-Met (SEQ ID NO: 2) was added to start the reaction and the mixture was incubated for 20 min. at 30° C. The reaction was stopped by 10% acetic acid.
The influences of metal ions to the activity of the endopeptidase of the present invention was determined similarly by the method according to Test example 7. The enzyme activity was inhibited by Cu^2+, Zn^2+ and Fe^2+.

Assay [3] has the same target. How it is done:
as §1
The enzyme activity was determined by reversed phase chromatography.

[4] abbreviates: 2 to 5 mM substrate, 50 mM HEPES pH 7.0, 30° C.
[5] abbreviates: 0.001 to 2.0 mM inhibitor, 30 min. at 4° C., 1 mM Tyr-Gly-Gly-Phe-Met, pH 7.0, 30° C.

“Also recorded” adds a separate entry of the source. Where two headings read alike, the source gives them in different places. Numbered stars: 1 amine (or outer) side, 2 acyl side, 3 side chain; on linkers, the order of the positions; unused ones are H or OH. Ends that are not written are not given here. Peptide text beside a SMILES is read from it. * marks the point of attachment. pNA = O=[N+]([O-])c1ccc(N*)cc1; Suc = O=C(CCC(=O)[*:2])[*:1]; MeOSuc = COC(=O)CCC(=O)*

In the case of `O=C(Nc1ccc([N+](=O)[O-])cc1)[C@@H]1CCCN1` [Pro-pNA], in assay [1] (setting [4]), the Hydrolysis entry is given as “-”.
On the same count and under the same terms, the value for Pro-Lys-Gly-Gly (PKGG) was “-”.
Still for that read-out and setting: the value for Dynorphin A was “+”.
Regarding Neurotensin, in assay [1] (setting [4]), the Hydrolysis result was “+”.
Same read-out and setting: the value for Ala-Ala-Ala-Ala (AAAA) was “+”.
In the case of `[Zn+2]` [Zn^2+], in assay [2], the “inhibition of endopeptidase activity by metal ions” value (“inhibition … by metal ions” below) was “inhibited”.
Turning to Pro-Ala, in assay [1] (setting [4]), the Hydrolysis entry is recorded as “-”.
On the same count and under the same terms, the value for Pro-Gly-Lys-Ala-Arg (PGKAR) was “-”; that for Gly-Pro-Gly-Gly (GPGG) was “-”.
Regarding `O=C(O)CN(CCN(CC(=O)O)CC(=O)O)CC(=O)O` [EDTA, ethylenediaminetetraacetic acid], in assay [3] (pH 7), the “inhibition of endopeptidase activity by enzyme inhibitors” value (from here on “inhibition … by enzyme inhibitors”) is “inhibited; also recorded: inhibition”.
Regarding “Parathyroid hormone, human, f1-34: human parathyroid hormone fragment 1-34, 34 amino acid residues”, the Hydrolysis result in assay [1] (setting [4]) is listed as “+”.
Still for that read-out and setting: the value for Ala-Pro-pNA was “-”.
As for `O=S(=O)(F)Cc1ccccc1` [phenylmethylsulfonyl fluoride], in assay [3] (setting [5]), the “inhibition … by enzyme inhibitors” value is “no inhibition”.
In the case of `[Cu+2]` [Cu^2+], in assay [2], the “inhibition … by metal ions” value is listed as “inhibited”.
Take “β-Casein, f108-113: β-Casein fragment 108-113, 6 amino acid residues (EMPFPK; UniProt P02666 123-128, looked up, fragment)”: the Hydrolysis entry in assay [1] (setting [4]) is listed as “+”.
The same measure, in the same setting: the value for Z-Phe-Ala was “-”.
Same read-out and setting: the value for Pro-Gly-Gly was “-”; that for “β-Casein, f203-209: β-Casein fragment 203-209, 7 amino acid residues (GPFPIIV; UniProt P02666 218-224, looked up, fragment)” was “+”; that for “Parathyroid hormone, human, f13-34: human parathyroid hormone fragment 13-34, 22 amino acid residues (KHLNSMERVEWLRKKLQDVHNF; Parathyroid hormone; UniProt P01270 44-65, looked up, fragment)” was “+”.
As for Ala-Ala-Ala-Ala-Ala, the Hydrolysis entry in assay [1] (setting [4]) is “+”.
As for “Parathyroid hormone, human, f1-38: human parathyroid hormone fragment 1-38, 38 amino acid residues (SVSEIQLMHNLGKHLNSMERVEWLRKKLQDVHNFVALG; Parathyroid hormone; UniProt P01270 32-69, looked up, fragment)”, the Hydrolysis entry in assay [1] (setting [4]) was “-”.
With RPPGFSPFR [Bradykinin], the Hydrolysis result in assay [1] (setting [4]) is “+”.
On the same count and under the same terms, the value for `CSCC[C@H](NC(=O)[C@H](CC(C)C)NC(=O)CNC(=O)[C@H](Cc1ccccc1)NC(=O)[C@H](Cc1ccccc1)NC(=O)[C@H](CCC(N)=O)NC(=O)[C@H](CCC(N)=O)NC(=O)[C@@H]1CCCN1C(=O)[C@H](CCCCN)NC(=O)[C@@H]1CCCN1C(=O)[C@@H](N)CCCNC(=N)N)C(N)=O` [Substance P] was “+”; that for Leu-Gly-Gly was “-”; that for Ala-Ala-Ala-Ala-Ala-Ala was “+”.
`CC(C)C[C@H](NC(=O)[C@@H]1CCCN1C(=O)[C@H](C)NC(=O)[C@H](C)NC(=O)CCC(=O)O)C(=O)Nc1ccc([N+](=O)[O-])cc1` [Suc-Ala-Ala-Pro-Leu-pNA] (Suc-AAPL-pNA): the Hydrolysis result in assay [1] (setting [4]) is listed as “-”.
Still for that read-out and setting: the value for Phe-Met was “-”; that for Leu-Leu was “-”.
In the case of Met-Gly-Gly, in assay [1] (setting [4]), the Hydrolysis entry is “-”.
Same read-out and setting: the value for Leu-Leu-Leu was “+”.
Turning to `[Fe+2]` [Fe^2+], the “inhibition … by metal ions” value in assay [2] is recorded as “inhibited”.
On to Gly-Pro-Arg-Pro (GPRP), for which the Hydrolysis result in assay [1] (setting [4]) is “-”.
On the same count and under the same terms, the value for Phe-Val was “-”.
With Insulin β-chain, in assay [1] (setting [4]), the Hydrolysis result is listed as “+”.
For the molecule β-Casomorphin, in assay [1] (setting [4]), the Hydrolysis entry was “-”.
With `O=C(O)CCC(=O)N[C@@H](Cc1ccccc1)C(=O)Nc1ccc([N+](=O)[O-])cc1` [Suc-Phe-pNA], the Hydrolysis entry in assay [1] (setting [4]) was “-”.
As to κ-Casein: casein protein substrate, the Hydrolysis entry in assay [1] (setting [4]) was “-”.
On to “Angiotensin (DRVYIHPFHL; Angiotensin-1; UniProt P01019 25-34, looked up)”, for which the Hydrolysis result in assay [1] (setting [4]) is reported as “+”.
Same read-out and setting: the value for `CSCC[C@H](NC(=O)[C@H](Cc1ccccc1)NC(=O)CNC(=O)CNC(=O)[C@@H](N)Cc1ccc(O)cc1)C(=O)O` [Met-Enkephalin] was “+”.
For the molecule `COC(=O)CCC(=O)N[C@@H](CCCNC(=N)N)C(=O)N1CCC[C@H]1C(=O)N[C@@H](Cc1ccc(O)cc1)C(=O)Nc1ccc([N+](=O)[O-])cc1` [MeO-Suc-Arg-Pro-Tyr-pNA] (MeOSuc-Arg-Pro-Tyr-pNA), the Hydrolysis result in assay [1] (setting [4]) is “-”; in assay [1] (substrate + LAP (leucine aminopeptidase), pH 7.0, 30° C.), “+”.
For the molecule `O=C(O)CI` [iodoacetic acid], in assay [3] (pH 7), the “inhibition … by enzyme inhibitors” value is given as “no inhibition”.
For the molecule `c1cnc2c(c1)ccc1cccnc12` [1,10-phenanthroline], the “inhibition … by enzyme inhibitors” value in assay [3] (setting [5]) is “inhibited; also recorded: inhibition”.
Consider “Parathyroid hormone, human, f1-44: human parathyroid hormone fragment 1-44, 44 amino acid residues (SVSEIQLMHNLGKHLNSMERVEWLRKKLQDVHNFVALGAPLAPR; Parathyroid hormone; UniProt P01270 32-75, looked up, fragment)”, for which the Hydrolysis result in assay [1] (setting [4]) is “-”.
Still for that read-out and setting: the value for `NCCCC[C@H](N)C(=O)Nc1ccc([N+](=O)[O-])cc1` [Lys-pNA] was “-”.
With `O=S(=O)(O)c1cc[c]([Hg][Cl])cc1` [p-CMBS, p-chloromercuribenzenesulfonic acid], the “inhibition … by enzyme inhibitors” value in assay [3] (setting [5]) is given as “inhibited; also recorded: inhibition”.
Turning to Tyr-Gly-Gly, in assay [1] (setting [4]), the Hydrolysis entry was “-”.
In the case of Bzl-Cys-pNA, the Hydrolysis entry in assay [1] (setting [4]) was “-”.

B1: α51 -Casein: casein protein substrate (probably αs1-casein) (protein, UniProt P02662 16-214, looked up)
Alpha-S1-casein: RPKHPIKHQGLPQEVLNENLLRFFVAPFPEVFGKEKVNELSKDIGSESTEDQAMEDIKQMEAESISSSEEIVPNSVEQKHIQKEDVPSERYLGYLEQLLRLKKYKVPQLEIVPNSAEERLHSMKEGIHAQQKEPMIGVNQELAYFYPELFRQFYQLDAYPSGAWYYVPLGTQYTDAPSFSDIPNPIGSENSEKTTMPLW
For the molecule B1, the Hydrolysis entry in assay [1] (setting [4]) is on record as “-”.

B2: β-Casein: casein protein substrate (protein, UniProt P02666 16-224, looked up)
Beta-casein: RELEELNVPGEIVESLSSSEESITRINKKIEKFQSEEQQQTEDELQDKIHPFAQTQSLVYPFPGPIPNSLPQNIPPLTQTPVVVPPFLQPEVMGVSKVKEAMAPKHKEMPFPKYPVEPFTESQSLTLTDVENLHLPLPLLQSWMHQPHQPLPPTVMFPPQSVLSLSQSKVLPVPQKAVPYPQRDMPIQAFLLYQEPVLGPVRGPFPIIV
Consider B2, for which, in assay [1] (setting [4]), the Hydrolysis entry is reported as “-”.
